Measurements from patent US20140128352A1, “COMPOUNDS AND METHODS FOR MODULATING MITOCHONDRIAL METABOLISM AND REACTIVE OXYGEN SPECIES PRODUCTION” (Buck Institute for Research on Aging, priority 2012, published 2014).
Where two headings read alike, the source gives them in different places.

Tests used:
[1] = system: ubiquinone binding site of complex I (IQ); assay: High-throughput screen: ROS production from ubiquinone binding site of complex I (IQ), isolated skeletal muscle mitochondria; format: biochemical, rat; settings: percent change in ROS from DMSO controls
[2] = target: T1, flavin binding site of complex I (IF) (Rattus norvegicus, UniProt Q5XIH3); assay: High-throughput screen: ROS production from flavin binding site of complex I (IF); format: biochemical
T1 construct: freshly isolated muscle mitochondria were assayed; from tissue; host or cells: rat skeletal muscle mitochondria (Wistar, Harlan Laboratories)
T1 sequence (Q5XIH3 21-464 limits assumed, one chain of several): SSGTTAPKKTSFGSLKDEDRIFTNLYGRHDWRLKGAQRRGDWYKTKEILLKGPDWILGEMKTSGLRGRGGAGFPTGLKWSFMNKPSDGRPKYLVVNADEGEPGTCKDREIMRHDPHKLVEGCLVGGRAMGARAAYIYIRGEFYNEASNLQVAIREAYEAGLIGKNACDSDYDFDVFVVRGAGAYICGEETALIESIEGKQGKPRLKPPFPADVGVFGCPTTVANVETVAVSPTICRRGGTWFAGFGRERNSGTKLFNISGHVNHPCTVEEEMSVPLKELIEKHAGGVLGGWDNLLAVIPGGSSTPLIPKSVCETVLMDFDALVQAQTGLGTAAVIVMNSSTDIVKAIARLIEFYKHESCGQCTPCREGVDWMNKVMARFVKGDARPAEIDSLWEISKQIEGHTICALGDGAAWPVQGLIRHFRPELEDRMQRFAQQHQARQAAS
Method: (§1) Skeletal muscle mitochondria were isolated from 5-8 week old female Wistar rats (Harlan Laboratories). Minced muscle was homogenized in buffer containing bacterial protease Type VIII prior to differential centrifugation to separate mitochondria from other tissue components. Unless otherwise stated, freshly isolated muscle mitochondria were assayed in buffer containing 120 mM KCl, 5 mM HEPES, 1 mM EGTA, 0.3% (w/v) bovine serum albumin. Where indicated, CaCl2 was added to yield a final free concentration of 250 nM calcium at pH 7.0 at 37° C.
Master screening plates were prepared using a Biomek FX liquid handling workstation (Beckman) to transfer 1 μL of each compound into individual wells on 96-well storage plates (80 compounds per plate). […] Just prior to use, plates were brought to room temperature and diluted 300-fold with standard buffer (13.3X=33.3 μM). To monitor the performance of each assay throughout screening and to provide intra-plate normalization reference points, DMSO negative controls and known mitochondrial inhibitor positive controls were included on each Master compound plate.
(§2) Total amounts of superoxide and H2O2 production were determined fluorometrically as H2O2, without distinguishing between them, in the presence of exogenous superoxide dismutase (25 units/mL final), horseradish peroxidase (1 unit/mL final), and Amplex UltraRed (25 μM final) as described (Affourtit, C. et al. (2012) Measurement of proton leak and electron leak in isolated mitochondria. Methods Mol. Biol. 810: 165-82). Just prior to use, a bulk 3.3X solution was made in standard buffer and distributed into a 2 mL deep well 96-well transfer plate.
To assess the effects of a compound on ROS production from the flavin binding site of complex I (IF), Start Solution containing 5 mM glutamate, 5 mM malate and 4 μM rotenone was distributed into standard 96-well transfer plates. A Biomek FX workstation was programmed to dispense solutions into black 96-well assay plates. Solutions were dispensed to all assay plates in the following order: ROS Detection solution described in Example 3, Mitochondria solution described in Example 1 to a final concentration of 0.3 mg/ml, and Compound dilutions described in Example 2. Duplicate assay plates were made and each was initiated by the addition of 3.3X Start solution containing 5 mM glutamate, 5 mM malate and 4 μM rotenone. Plates were incubated in the dark at room temperature for 30-40 minutes before acquiring endpoint fluorescence using a Victor 3V plate reader (Perkin Elmer) equipped with 550/590 nm excitation/emission filters.
The fluorescence values in each well were scaled as the percent change from the intra-plate DMSO controls with the appropriate inhibitor positive controls defined as −100%. Following initial scaling, intra-plate normalized values were subjected to Tukey's two-way median polish to remove row and column dependent positional effects (Malo, N. et al. (2006) Statistical practice in high-throughput screening data analysis. Nat. Biotechnol. 24(2): 167-75).

[3] = target: T2, outer ubiquinone binding site of complex III (IIIQO) (Rattus norvegicus, UniProt P00159+P20788); assay: High-throughput screen: ROS production from outer ubiquinone binding site of complex III (IIIQO); format: biochemical; settings: for IIIQO: Table 8
T2 construct: freshly isolated muscle mitochondria were assayed; from tissue; host or cells: rat skeletal muscle mitochondria (Wistar, Harlan Laboratories)

[4] = target: T3, succinate dehydrogenase/complex II (SDH) (Rattus norvegicus, UniProt P21913+Q641Z9+Q6PCT8+Q920L2); assay: High-throughput screen: ROS production from succinate dehydrogenase/complex II (SDH); format: biochemical; settings: percent change in ROS from DMSO controls; for inhibition at 2.5 µM: Table 7
T3 construct: freshly isolated muscle mitochondria were assayed; from tissue; host or cells: rat skeletal muscle mitochondria (Wistar, Harlan Laboratories)
T3 sequence (Q920L2 35-656): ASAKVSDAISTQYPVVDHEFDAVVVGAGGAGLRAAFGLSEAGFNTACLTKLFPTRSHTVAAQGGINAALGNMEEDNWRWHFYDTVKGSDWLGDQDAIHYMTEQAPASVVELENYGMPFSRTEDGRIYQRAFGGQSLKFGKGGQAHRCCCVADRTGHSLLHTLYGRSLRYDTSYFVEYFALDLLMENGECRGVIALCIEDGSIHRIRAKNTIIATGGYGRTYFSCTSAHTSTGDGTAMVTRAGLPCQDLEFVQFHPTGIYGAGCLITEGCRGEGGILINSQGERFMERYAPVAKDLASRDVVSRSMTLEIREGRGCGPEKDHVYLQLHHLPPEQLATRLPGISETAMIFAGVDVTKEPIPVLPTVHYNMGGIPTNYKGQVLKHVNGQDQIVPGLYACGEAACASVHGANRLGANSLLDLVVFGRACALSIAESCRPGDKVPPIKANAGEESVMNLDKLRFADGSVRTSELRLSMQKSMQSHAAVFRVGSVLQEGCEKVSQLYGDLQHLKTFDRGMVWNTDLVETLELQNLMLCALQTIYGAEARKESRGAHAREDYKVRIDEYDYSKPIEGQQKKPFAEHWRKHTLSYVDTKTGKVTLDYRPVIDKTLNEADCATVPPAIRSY
T3 sequence (P21913 31-282): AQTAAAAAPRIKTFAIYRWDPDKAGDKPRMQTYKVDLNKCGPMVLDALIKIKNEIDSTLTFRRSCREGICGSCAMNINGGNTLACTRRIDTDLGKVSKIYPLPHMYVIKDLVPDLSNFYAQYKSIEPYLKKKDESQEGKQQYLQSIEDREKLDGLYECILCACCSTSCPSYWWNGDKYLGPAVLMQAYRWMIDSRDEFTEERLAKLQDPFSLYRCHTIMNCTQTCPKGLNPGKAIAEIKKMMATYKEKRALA
T3 sequence (Q641Z9 30-169 limits assumed): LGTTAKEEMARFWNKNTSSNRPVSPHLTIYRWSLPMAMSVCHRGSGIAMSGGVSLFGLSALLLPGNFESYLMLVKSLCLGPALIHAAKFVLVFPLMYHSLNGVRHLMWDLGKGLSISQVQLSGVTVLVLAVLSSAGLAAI
T3 sequence (Q6PCT8 57-159): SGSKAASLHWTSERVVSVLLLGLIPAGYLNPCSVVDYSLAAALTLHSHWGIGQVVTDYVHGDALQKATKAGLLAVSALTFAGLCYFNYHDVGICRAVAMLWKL
Method: as §1
Just prior to use, plates were brought to room temperature and diluted 300-fold with standard buffer (13.3X=33.3 μM). To monitor the performance of each assay throughout screening and to provide intra-plate normalization reference points, DMSO negative controls and known mitochondrial inhibitor positive controls were included on each Master compound plate.
as §2
To assess the effects of a compound on ROS production from succinate dehydrogenase/complex II (SDH), Start Solution containing 15 μM palmitoyl carnitine, 2.5 μM antimycin A and 2 μM myxothiazol was distributed into standard 96-well transfer plates. A Biomek FX workstation was programmed to dispense solutions into black 96-well assay plates. Solutions were dispensed to all assay plates in the following order: ROS Detection solution described in Example 3, Mitochondria solution described in Example 1 to a final concentration of 0.3 mg/ml, and Compound dilutions described in Example 2. Duplicate assay plates were made and each was initiated by the addition of 3.3X Start solution containing 15 μM palmitoyl carnitine, 2.5 μM antimycin A and 2 μM myxothiazol. Plates were incubated in the dark at room temperature for 30-40 minutes before acquiring endpoint fluorescence using a Victor 3V plate reader (Perkin Elmer) equipped with 550/590 nm excitation/emission filters.
The fluorescence values in each well were scaled as the percent change from the intra-plate DMSO controls with the appropriate inhibitor positive controls defined as −100%. Following initial scaling, intra-plate normalized values were subjected to Tukey's two-way median polish to remove row and column dependent positional effects (Malo et al., 2006).

[5] = target: T4, glycerol-3-phosphate dehydrogenase (GPDH) (Rattus norvegicus, UniProt P35571); assay: High-throughput screen: ROS production from glycerol-3-phosphate dehydrogenase (GPDH); format: biochemical; parameters: inhibition: dose or concentration left out as unconfirmed; settings: for inhibition: Table 7; for inhibition / GPDH: percent change in ROS from DMSO controls
T4 construct: The activity of GPDH in intact mitochondria (0.3 mg/mL) was measured; from tissue; host or cells: rat skeletal muscle mitochondria (Wistar, Harlan Laboratories)
T4 sequence (P35571 43-727): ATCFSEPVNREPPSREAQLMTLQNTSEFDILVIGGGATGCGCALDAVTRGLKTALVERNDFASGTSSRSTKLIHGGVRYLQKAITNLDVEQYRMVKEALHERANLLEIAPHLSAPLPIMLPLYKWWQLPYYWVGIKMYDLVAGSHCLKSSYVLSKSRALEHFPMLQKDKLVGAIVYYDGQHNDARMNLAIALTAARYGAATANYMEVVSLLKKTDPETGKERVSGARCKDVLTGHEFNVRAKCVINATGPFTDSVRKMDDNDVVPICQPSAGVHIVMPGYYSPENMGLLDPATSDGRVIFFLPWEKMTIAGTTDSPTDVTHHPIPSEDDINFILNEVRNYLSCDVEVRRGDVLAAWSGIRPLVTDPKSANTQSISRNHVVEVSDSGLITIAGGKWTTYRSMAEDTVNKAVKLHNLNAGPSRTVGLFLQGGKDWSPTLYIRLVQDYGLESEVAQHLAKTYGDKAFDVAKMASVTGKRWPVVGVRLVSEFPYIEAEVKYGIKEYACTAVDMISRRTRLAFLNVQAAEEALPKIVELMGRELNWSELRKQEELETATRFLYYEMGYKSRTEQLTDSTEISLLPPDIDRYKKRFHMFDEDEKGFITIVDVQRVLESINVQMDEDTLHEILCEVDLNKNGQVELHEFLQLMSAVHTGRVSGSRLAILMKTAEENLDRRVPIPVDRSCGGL
Method: as §1
Compounds (10 mM in DMSO) were randomly selected from a library of 24,000 compounds obtained from ChemBridge and curated by the lab of Robert Hughes at the Buck Institute. Master screening plates were prepared using a Biomek FX liquid handling workstation (Beckman) to transfer 1 μL of each compound into individual wells on 96-well storage plates (80 compounds per plate). Master plates were sealed with foil and stored at −80° C. Just prior to use, plates were brought to room temperature and diluted 300-fold with standard buffer (13.3X=33.3 μM). To monitor the performance of each assay throughout screening and to provide intra-plate normalization reference points, DMSO negative controls and known mitochondrial inhibitor positive controls were included on each Master compound plate.
as §2
To assess the effects of a compound on ROS production from glycerol-3-phosphate dehydrogenase (GPDH), Start Solution containing 25 mM glycerol phosphate, 4 μM rotenone, 2.5 μM antimycin A, 1 mM malonate, 2 μM myxothiazol was distributed into standard 96-well transfer plates. A Biomek FX workstation was programmed to dispense solutions into black 96-well assay plates. Solutions were dispensed to all assay plates in the following order: ROS Detection solution described in Example 3, Mitochondria solution described in Example 1 to a final concentration of 0.2 mg/ml, and Compound dilutions described in Example 2. Duplicate assay plates were made and each was initiated by the addition of 3.3X Start solution containing 25 mM glycerol phosphate, 4 μM rotenone, 2.5 μM antimycin A, 1 mM malonate, 2 μM myxothiazol. Plates were incubated in the dark at room temperature for 30-40 minutes before acquiring endpoint fluorescence using a Victor 3V plate reader (Perkin Elmer) equipped with 550/590 nm excitation/emission filters.
The fluorescence values in each well were scaled as the percent change from the intra-plate DMSO controls. […] Following initial scaling, intra-plate normalized values were subjected to Tukey's two-way median polish to remove row and column dependent positional effects (Malo et al., 2006).

[6] = system: mitochondrial membrane potential (ΔΨm); assay: Membrane potential (ΔΨm) counterscreen with TMRM; settings: malate, nigericin
[7] = Table 3, 5 mM glutamate, 5 mM malate, 4 μM rotenone, compounds 2.5 μM, percent change from DMSO, positive control −100%, read-out: % Reduction in ROS production (IF)
[8] = Table 7, percent change in ROS from DMSO controls, read-out: IF
[9] = Table 8, percent change in ROS from DMSO controls
[10] = Table 9, percent change in ROS from DMSO controls
[11] = Table 7, percent change in ROS from DMSO controls, read-out: IIIQO
[12] = percent change in ROS from DMSO controls
[13] = Table 9, percent change in ROS from DMSO controls, read-out: IIIQo
[14] = Table 4, 5 mM succinate, 4 μM rotenone, 2.5 μM antimycin A, compounds 2.5 μM, percent change from DMSO, read-out: % Reduction in ROS production (IIIQO)

Row | inhibition at 2.5 µM [3, 11] [%] | IIIQO [3, 12] | inhibition at 2.5 µM [3, 13] [%] | inhibition at 2.5 µM [4] [%] | SDH ([4]; Table 8) | SDH ([4]; Table 9) | inhibition [5] [%] | GPDH ([5]; Table 8) | GPDH ([5]; Table 9) | inhibition at 2.5 µM [3, 14] [%] | inhibition at 2.5 µM ([5]; Table 6, 25 mM glycerol phosphate, rotenone, antimycin A, malonate, myxothiazol, compounds 2.5 μM, scaled to IQ positive controls, read-out: % Reduction in ROS Production (GPDH)) [%] | Structure (SMILES) | IQ ([1]; Table 7) | IQ ([1]; Table 8) | IQ ([1]; Table 9) | inhibition at 2.5 µM [2, 7] [%] | inhibition at 2.5 µM [2, 8] [%] | IF [2, 9] | IF [2, 10] | ΔΨm ([6]; Table 8, glutamate) | ΔΨm ([6]; Table 9, glutamate)
1 | 9.9 | −9.9 | 9.9 | -1.7 | 1.7 | 1.7 | 1.8 | −1.8 | −1.8 | – | – | Cc1ccc(C(C)C)c(OCC(O)CN2CCN(Cc3ccccc3)CC2)c1.Cl.Cl (stereo not drawn) [Compound 21] | 0.0 | 0.0 | 0.0 | 23 | 23 | −23.0 | −23.0 | −0.3 | −0.3
2 | 6.2 | −6.2 | 6.2 | -5.5 | 5.5 | 5.5 | 2.6 | −2.6 | −2.6 | – | – | CCN1CCN(C2CCC(C(C)(C)C)CC2)CC1 (stereo not drawn) [Compound 22] | −0.4 | −0.4 | −0.4 | 22.1 | 22.1 | −22.1 | −22.1 | −0.9 | −0.9
3 | 8.8 | −8.8 | 8.8 | -1.7 | 1.7 | 1.7 | 1 | −1.0 | −1.0 | – | – | CN(C)CCN(Cc1ccccc1)Cc1ccccc1Br [Compound 23] | −2.7 | −2.7 | −2.7 | 21.1 | 21.1 | −21.1 | −21.1 | −1.5 | −1.5
4 | 1.3 | −1.3 | 1.3 | 1.5 | −1.5 | −1.5 | 2 | −2.0 | −2.0 | – | – | O=C(COc1ccc(Cl)cc1Cl)Nc1ccc(F)cc1F [Compound 24] | −1.0 | −1.0 | −1.0 | 19.8 | 19.8 | −19.8 | −19.8 | 0.1 | 0.1
5 | 3.3 | −3.3 | 3.3 | 0.1 | −0.1 | −0.1 | 2.5 | −2.5 | −2.5 | – | – | CCN(CC)CCN(CC)Cc1ccc(Cl)cc1Cl [Compound 25] | −0.6 | −0.6 | −0.6 | 19.7 | 19.7 | −19.7 | −19.7 | −0.4 | −0.4
6 | 0.1 | −0.1 | 0.1 | -0.8 | 0.8 | 0.8 | 0.4 | −0.4 | −0.4 | – | – | Cc1ccc(S(=O)(=O)Nc2nnc(C)s2)cc1 [Compound 27] | 0.0 | 0.0 | 0.0 | 19.6 | 19.6 | −19.6 | −19.6 | 1.6 | 1.6
7 | 2.5 | −2.5 | 2.5 | -1.3 | 1.3 | 1.3 | 2.3 | −2.3 | −2.3 | – | – | O=C(Nc1ccc(Br)cc1)[C@@H]1C2C=CC(C2)[C@@H]1C(=O)O (stereo partly drawn) [Compound 28] | 0.2 | 0.2 | 0.2 | 19.1 | 19.1 | −19.1 | −19.1 | −1.3 | −1.3
8 | 34.9 | −34.9 | 34.9 | -0.2 | 0.2 | 0.2 | 5.3 | −5.3 | −5.3 | 34.9 | – | Cc1ccc(CCSc2ccc(F)cc2)cn1 [Compound 35] | 1.3 | 1.3 | 1.3 | – | 0.7 | −0.7 | −0.7 | 0.6 | 0.6
9 | 33.6 | −33.6 | 33.6 | 1.1 | −1.1 | −1.1 | 4.9 | −4.9 | −4.9 | 33.6 | – | c1cc2c3c(ccc(CSCCc4ccncc4)c3c1)CC2 [Compound 36] | 3.7 | 3.7 | 3.7 | – | -0.6 | 0.6 | 0.6 | 0.0 | 0.0
10 | 25.1 | −25.1 | 25.1 | 2.7 | −2.7 | −2.7 | 4.2 | −4.2 | −4.2 | 25.1 | – | Cc1cc(C)c(S(=O)(=O)N2CCCC2=O)c(C)c1 [Compound 40] | 4.3 | 4.3 | 4.3 | – | -1.8 | 1.8 | 1.8 | 0.7 | 0.7
11 | 24.7 | −24.7 | 24.7 | -1.2 | 1.2 | 1.2 | -2.6 | 2.6 | 2.6 | 24.7 | – | COc1ccc(-c2ccccc2)cc1NCC1=CC[C@H]2C[C@@H]1C2(C)C [Compound 41] | 0.2 | 0.2 | 0.2 | – | -6.6 | 6.6 | 6.6 | 2.3 | 2.3
12 | 24.1 | −24.1 | 24.1 | -0.7 | 0.7 | 0.7 | 0.3 | −0.3 | −0.3 | 24.1 | – | Fc1ccc(SCCc2ccccn2)cc1 [Compound 42] | 7.9 | 7.9 | 7.9 | – | 2.6 | −2.6 | −2.6 | 0.4 | 0.4
13 | -10 | 10.0 | -10 | 1 | −1.0 | −1.0 | 12.7 | −12.7 | −12.7 | – | 12.7 | O=C(O)/C=C/C(=O)Nc1ccc(/C=C/c2ccccc2)cc1 [Compound 49] | 1.7 | 1.7 | 1.7 | – | -1 | 1.0 | 1.0 | −0.3 | −0.3
